This is an account of results in patent US10071112B2, “Vitamin E-nucleoside prodrugs” (EPIGENETICS PHARMA LLC, priority 2014, dated 2018).

Structures can show the parent of a compound that is named as a salt. Where two headings read alike, the source gives them in different places.

For data set [1] the following is noted: blank human plasma matrix, room temperature, at least 4 hours; cited from earlier work.
Data set [2] concerns NCI-H460. The data set is described as follows: In vitro cytotoxicity / growth inhibition, SRB assay, 72 hr, non-small cell lung cancer cells. To be noted: for IC50: Table 2; for GI50: 72 hr. The class given is cell-based. On the procedure:
(§1) In general, growth inhibitory effects of gemcitabine and prodrugs were evaluated in breast (MDA), lung (H460) and colon (H116) cancer cell lines by seeding the cell lines in 96-wells plates and exposing the cells to various drug concentrations for 72 hr. Standard sulforhodamine B (SRB) assay was then performed.

Data set [3] concerns HCT-116. The data set is described as follows: In vitro cytotoxicity / growth inhibition, SRB assay, 72 hr, colon cancer cells. The class given is cell-based. To be noted: for IC50: Table 2, HCT-116; for GI50: 72 hr. On the procedure:
as §1

Data set [4] relates to MDA-MB-231. The data set is described as follows: In vitro cytotoxicity / growth inhibition, SRB assay, 72 hr, breast cancer cells. The class given is cell-based. To be noted: for IC50: Table 2; for GI50: 72 hr. Here is the method:
as §1
(In general: In SRB staining, fixed cells bind dye roughly in proportion to their protein.)

The nature of data set [5]: Intrinsic clearance / metabolic stability in liver microsomes. The data set is classed as in vitro ADME. To be noted: human liver microsomes. Here is the method: Metabolic stability, expressed as percent of the parent compound remaining, was calculated by comparing the peak area of the compound at the time point relative to that at time-0. The half-life (T1/2) was estimated from the slope of the initial linear range of the logarithmic curve of compound remaining (%) vs. time, assuming the first-order kinetics. The apparent intrinsic clearance (CLint, in μL/min/pmol, μL/min/mg or μL/min/Mcell) was calculated according to the following formula: CLint=[…](mg protein/μL or million cells/μL or pmol CYP isozyme/μL)

The test system of data set [6] is CEM dCK(—). The data set is described as follows: Activity in CEM cells without deoxycytidine kinase. The data set is classed as cell-based. To be noted: for increase of IC50 from dCK WT cells to dCK (−) cells: CEM dCK(−) vs CEM WT; for IC50: Homo sapiens, CCRF-CEM, CEM dCK(—) cells. On the procedure: (§2) To further confirm that tocopherol/tocotrienol-modified drugs are imported as intact molecules and then dissociate intracellularly into monophosphorylated nucleoside and carrier, i.e., tocopherol/tocotrienol, Compound 2 was tested for activity against gemcitabine in wild type (WT) leukemic CEM cells and CEM cells without deoxycytidine kinase (dCK). In the absence of dCK, gemcitabine is not phosphorylated to gemcitabine monophosphate a precursor to the therapeutically active di- and triphosphates.

Data set [7] in a line: Aqueous solubility determination. The data set is classed as physicochemical. The source says: In addition, chromatographic purity (%) was defined as the peak area of the principal peak relative to the total integrated peak area in the HPLC chromatogram of the calibration standard. A chromatogram of the calibration standard of each test compound, along with a UV/VIS spectrum with labeled absorbance maxima, was generated.

For data set [8], the system named is CEM WT. The data set is described as follows: Activity in wild type leukemic CEM cells. The note with it: for IC50: Homo sapiens, CCRF-CEM, CEM WT (dCK wild type) cells. The data set is classed as cell-based. Here is the method:
as §2

Data set [9] deals with pancreatic cancer. The note with it: clinical trials, patients with pancreatic cancer; cited from earlier work.
Setting [10] is: Homo sapiens, NCI-H460, absence of dipyridamole (control), read-out: GI50 SRB, H460 Lung.
[11] abbreviates: Homo sapiens, NCI-H460, presence of 1 μM dipyridamole, read-out: GI50 SRB, H460 Lung, dipyridamole.
Setting [12] is: Homo sapiens, absence of dipyridamole (control), read-out: GI50 SRB, H116 Colon.
[13] abbreviates: Homo sapiens, presence of 1 μM dipyridamole, read-out: GI50 SRB, H116 Colon, dipyridamole.
The mark [14] stands for this setting: Homo sapiens, MDA-MB-231, absence of dipyridamole (control), read-out: GI50 SRB, MDA Breast.
[15] abbreviates: Homo sapiens, MDA-MB-231, presence of 1 μM dipyridamole, read-out: GI50 SRB, MDA Breast, dipyridamole.

Regarding `CCCCCCCC/C=C/CCCCCCCC(=O)OC[C@H]1O[C@@H](n2cnc(N)nc2=O)[C@H](O)[C@@H]1O` [5-azacytidine elaidic acid ester], the “percent of the initial amount remaining” value in data set [1] is recorded as 94%.
One may read the IC50 as the point on the concentration scale where inhibition reaches its midpoint. On to `Cc1c(C)c2c(c(C)c1OP(=O)(O)OC[C@H]1O[C@@H](n3ccc(N)nc3=O)C(F)(F)[C@@H]1O)CC[C@@](C)(CCC[C@H](C)CCC[C@H](C)CCCC(C)C)O2` [Compound 1, D-α-tocopheryl phosphate-5′-gemcitabine, triethylammonium salt], for which the IC50 in data set [2] (Homo sapiens, NCI-H460) was found to be 23.8 µM; in data set [3] (Homo sapiens) it was 26.1 µM; in data set [4] (Homo sapiens, MDA-MB-231), 22.7 µM.
Broadly, the GI50 is the concentration at which growth is held to half of that of the control. The solubility is the concentration that dissolves in the medium under given conditions. On to `Cc1cc(OP(=O)(O)OC[C@H]2O[C@@H](n3ccc(N)nc3=O)C(F)(F)C2O)cc2c1O[C@](C)(CCC[C@H](C)CCC[C@H](C)CCCC(C)C)CC2` (stereo partly drawn) [Compound 2, D-δ-tocopheryl phosphate-5′-gemcitabine, triethylammonium salt], for which, in [5], the intrinsic clearance half-life entry is reported as “greater than 60 minutes”. Besides, the GI50 in data set [2] (setting [10]) was 2.14 µM; in data set [2] (setting [11]), 1.47 µM; in data set [3] (setting [12]), 3.07 µM; in data set [3] (setting [13]), 6.74 µM; in data set [4] (setting [14]) it was 17.2 µM; in data set [4] (setting [15]), 23.3 µM. For the same compound, the IC50 in data set [2] (Homo sapiens, NCI-H460) turned out to be 1.69 µM; in data set [3] (Homo sapiens) it was 3.67 µM; in [6], 19.2 µM; in data set [4] (Homo sapiens, MDA-MB-231), 5.08 µM; in [8] it was 0.59 µM. Also, the “increase of IC50 from dCK WT cells to dCK (−) cells” value in data set [6] came out at 32.5 fold. For the same compound, the “fold by which IC50 of Compound 2 was lower than gemcitabine” value in [6] (dCK (−) cells) amounted to 6.5 fold. In addition, the solubility was more than 10000 µg/mL in data set [7] (PBS buffer, aqueous buffer, PBS (pH 7.4), read-out: aqueous solubility in PBS) and more than 200 µM in data set [7] (simulated intestinal fluid, fassgf or other biorelevant, read-out: aqueous solubility in simulated intestinal fluid).
As to `CC(C)=CCC/C(C)=C/CC/C(C)=C/CCC1(C)CCc2cc(OP(=O)(O)OC[C@H]3O[C@@H](n4ccc(N)nc4=O)C(F)(F)[C@@H]3O)c(C)c(C)c2O1` (stereo partly drawn) [Compound 3, D-γ-tocotrienyl phosphate-5′-gemcitabine, triethylammonium salt], the IC50 in data set [2] (NCI-H460) was 4.75 µM; in [3], 4.01 µM; in data set [4] (MDA-MB-231) it was 4.9 µM. Besides, the GI50 in data set [2] (absence of dipyridamole (control), read-out: GI50 SRB, H460 Lung) came to 7.16 µM; in [2] (presence of 1 μM dipyridamole, read-out: GI50 SRB, H460 Lung, dipyridamole), 16 µM; in data set [3] (absence of dipyridamole (control), read-out: GI50 SRB, H116 Colon), 5.55 µM; in [3] (presence of 1 μM dipyridamole, read-out: GI50 SRB, H116 Colon, dipyridamole), 12.6 µM; in [4] (absence of dipyridamole (control), read-out: GI50 SRB, MDA Breast), 30.3 µM; in data set [4] (presence of 1 μM dipyridamole, read-out: GI50 SRB, MDA Breast, dipyridamole), 27.8 µM.
For the compound `Nc1ccn([C@@H]2O[C@H](CO)[C@@H](O)C2(F)F)c(=O)n1` [Gemcitabine, reference compound], the GI50 in data set [2] (setting [10]) worked out at 0.02 µM; in [2] (setting [11]) it was 0.82 µM; in data set [3] (setting [12]) it was 0.03 µM; in [3] (setting [13]) it was 2.39 µM; in [4] (setting [14]) it was 3.08 µM; in data set [4] (setting [15]), 56.8 µM. Further, the half-inhibitory concentration (IC50) stood at 0.02 µM in data set [2] (Homo sapiens, NCI-H460); 0.01 µM in data set [3] (Homo sapiens); 124 µM in data set [6]; 0.11 µM in data set [4] (Homo sapiens, MDA-MB-231); 0.002 µM in data set [8]. For the same compound, the “increase of IC50 from dCK WT cells to dCK (−) cells” value in [6] was 62,250 fold. Further, the “fold by which IC50 of gemcitabine was lower than Compound 2” value in data set [8] (dCK WT cells) was 295 fold.
For the compound `CCCCCCCC/C=C/CCCCCCCC(=O)OC[C@H]1O[C@@H](n2ccc(N)nc2=O)C(F)(F)[C@@H]1O` [elaidic acid prodrug], the survival versus gemcitabine entry in [9] is “did not show any difference in survival”.
For the compound `CC(C)=CCC/C(C)=C/CC/C(C)=C/CCC1(C)CCc2cc(OP(=O)(O)O)c(C)c(C)c2O1` (stereo not shown) [γ-tocotrienyl phosphate, reference compound], the IC50 in [2] (NCI-H460) was determined as 69.1 µM; in data set [3], 55.7 µM; in data set [4] (MDA-MB-231), 26.4 µM.
Taken in the same sequence, the figures for “α-tocopheryl phosphate [reference compound]” were 52.2 µM, 46.9 µM and 23.4 µM.
The corresponding values for “δ-tocopheryl phosphate [reference compound]” are 69.7 µM, 70.6 µM and 29.6 µM.
